Measurements published in US20250243267A1, “COMBINATION OF A GREMLIN-1 ANTAGONIST WITH A CYTIDINE ANALOGUE OR DEOXYCYTIDINE ANALOGUE” (UCB BIOPHARMA SRL, priority 2022, published 2025).
“And” between values parts separate entries of the source, which are not always exact repeats. Identical values can stand only once.

System: LSL-KrasG12D/+; LSL-Trp53R172H/+; Pdx1-Cre (KPC) mouse model of pancreatic cancer
Experiment: Survival of KPC mice with pancreatic cancer from start of treatment (Kaplan-Meier, Log-Rank)
Format: in vivo
Source text: • Test antibody and drug Anti-gremlin-1 antibody-Ab7326 mlgG1-APP.4405.IgG.mFc-Lot number-PB 4682 • Vehicle-Phosphate Buffered Saline pH 7.4 (provided by the Beatson Institute) • Gemcitabine-(provided by the Beatson Institute, purchased from LC Labs, Woburn, MA, USA) in Phosphate Buffered Saline pH 7.4. • Genetically Modified Mice • LSL-Kras^G12D/+; Trp53^R172H/+; Pdx1-Cre (KPC) mice have been described previously (Hingorani et al., 2005). Mice were generated by crossing mice bearing Pdx1-Cre, and conditional LSL-KrasG12D or LSL-Trp53R172H alleles (strains 01XJ6 and 01XL9, Mouse Models of Human Cancer Consortium [MMHCC], NCI-Frederick, Frederick, MD, USA). Mice on a mixed background were bred in-house at the CRUK Beatson Institute and maintained in conventional caging with environmental enrichment, access to standard chow and water ad libitum. Genotyping was performed by Transnetyx (Cordoba, TN, USA). Mice of both sexes were recruited onto study. All animal experiments were performed under a UK Home Office licence and approved by the University of Glasgow Animal Welfare and Ethical Review Board.
Mice were monitored 3 times weekly until a diagnosis of pancreatic cancer was made by abdominal palpation and confirmed by ultrasound imaging. […] Mice were monitored daily and sacrificed when reaching ethical endpoint (symptoms include abdominal distension, cachexia, intermittent hunching or reduced mobility, piloerection, mild diarrhoea, anaemia). […]
Next, the efficacy of gremlin-1 inhibition as a potential therapeutic approach for pancreatic cancer was tested in the KPC model. […] A cohort of KPC mice was established and mice were monitored until they developed pancreatic cancer detectable by palpation.
Mice were monitored at least weekly by palpation until pancreatic tumours were detectable. […] Mice remained on study and were closely monitored until ethical endpoint was reached, at which time they were sacrificed as per institutional guidelines.

## Nc1ccn([C@@H]2O[C@H](CO)[C@@H](O)C2(F)F)c(=O)n1 [Gemcitabine, 2′-deoxy-2′,2′-difluorocytidine, reference compound]
KPC mice, result in words
  survival compared with vehicle controls: negligible benefit
KPC mice, survival from start of treatment, dosing twice weekly (Ab7326 mlgG1 30 mg/kg s.c.; gemcitabine 100 mg/kg i.p.)
  Median (days) survival: 24 days
One value per KPC mouse, * denotes smaller than average tumour at start of treatment
  Days on Rx (individual mice): 3 days and 34 days and 24 days and 44 days and 17 days
